Literature values, collected in patent publication US20040023969A1, “Combination of an allosteric alkyne inhibitor of matrix metalloproteinase-13 with celecoxib or valdecoxib” (priority 2002, published 2004).

Cc1onc(-c2ccccc2)c1-c1ccc(S(N)(=O)=O)cc1 [valdecoxib, 4-(5-methyl-3-phenyl-4-isoxazolyl)-benzenesulfonamide]
Tolerability in clinical studies (combined analysis of various clinical studies): well tolerated | Overall upper gastrointestinal safety profile (ulcers, perforations, obstructions and GI bleeds) (compared with ibuprofen, diclofenac and naproxen): significantly better than the conventional NSAIDs studied
